Assay results published in patent US10308654B2, “Preparation and use of kinase inhibitor” (CHANGZHOU LONGTHERA PHARMACEUTICALS INC, priority 2015, dated 2019).

Experiments:
[1] = molecular target: CDK1/CyclinB (Homo sapiens (Human), UniProt P06493); assay: CDK kinase activity assay (LANCE TR-FRET, ULight-4E-BP1 substrate); assay type: biochemical; details: 60 minutes incubation
Protocol: (§1) The CDK kinase used in this experiment: CDK4/CyclinD1 (invitrogen, Item No: PV4400); CDK6/CyclinD1 (invitrogen, Item No: PV4401); CDK1/CyclinB (invitrogen, Item No: PV3292).
(§2) Reagents used: Substrate is ULight-4E-BP1 (PerkinElmer, Item No: TRF0128); antibody is Eu-labeledanti-phospho-eIF4E-bindingprotein1 (Thr37/46) (Perkin-Elmer, Item No: TRF0216).
(§3) The test compound was dissolved in dimethyl sulfoxide and the solution was diluted to each concentration gradient with a buffer (50 mM HEPES, 10 mM MgCl2, 1 mM EGTA, 2 mM DTT and 0.01% Tween20) according to the test needs, the concentration of dimethyl sulfoxide was 4%. The buffer was then used to dilute ATP and the substrate ULight-4E-BP1 to prepare the mixture of 800 μM ATP and 200 nM substrate for further use. 2.5 μL of mixture of substrate and ATP or 2.5 μL of substrate was added to the wells, and then 2.5 μL of compound or 4% buffer of dimethyl sulfoxide was added, finally 5 μL of enzyme (final concentration was 0.66 μg/mL) was added, incubated avoiding light at room temperature for 60 minutes. 5 μL of EDTA stop buffer (final concentration was […]) diluted with 1×detectionbuffer (LANCEDetectionBuffer, 10×, PerkinElmer, CR97-100) was added to each well, and then 5 μL of antibody (final concentration was 2 nM) diluted with 1×detectionbuffer was added, incubated avoiding light at room temperature for 60 minutes. Perkin Elmer EnVision® TRFRETmode (Excitation wavelength: 320 nm, emission wavelength: 615 nm and 665 nm) was used to measure plates.
(§4) The inhibition rate of the sample was determined by the following formula: […]
(§5) IC50 values were calculated using GraphPadPrism software.

[2] = molecular target: CDK4/CyclinD1 (Homo sapiens (Human), UniProt P11802); assay: as above; assay type: biochemical; details: CDK4/CyclinD1, 60 minutes incubation
CDK4/CyclinD1, sequence (P11802 whole entry): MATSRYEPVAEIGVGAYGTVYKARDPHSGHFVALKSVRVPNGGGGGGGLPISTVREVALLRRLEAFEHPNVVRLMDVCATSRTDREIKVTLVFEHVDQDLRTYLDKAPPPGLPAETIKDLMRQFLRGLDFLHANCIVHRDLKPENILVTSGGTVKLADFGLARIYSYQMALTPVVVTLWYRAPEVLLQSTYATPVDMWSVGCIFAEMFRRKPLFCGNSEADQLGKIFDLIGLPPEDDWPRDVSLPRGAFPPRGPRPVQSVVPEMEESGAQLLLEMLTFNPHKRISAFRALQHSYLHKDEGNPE
CDK4/CyclinD1, sequence (P24385 whole entry partner): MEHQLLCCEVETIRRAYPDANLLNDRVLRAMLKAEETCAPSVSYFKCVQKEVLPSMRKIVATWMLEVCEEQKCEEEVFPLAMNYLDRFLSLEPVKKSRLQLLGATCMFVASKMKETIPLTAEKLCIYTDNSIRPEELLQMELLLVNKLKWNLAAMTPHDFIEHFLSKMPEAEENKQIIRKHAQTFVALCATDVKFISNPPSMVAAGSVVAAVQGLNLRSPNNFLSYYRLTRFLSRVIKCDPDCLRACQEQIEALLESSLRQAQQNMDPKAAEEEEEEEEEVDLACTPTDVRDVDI
Protocol: as §1, §2, §3, §4, §5

[3] = test system: Colo205 cells; assay: Proliferation inhibitory activity against human colon cancer cell line Colo205 (CCK8); assay type: cell-based; details: COLO 205, 96 hours
Protocol: In vitro cell assay described below could determine the proliferation inhibitory activity against human colon cancer cell line of the test compounds, and their activities could be represented by IC50 value.
Colo205 cells (Chinese Academy of Sciences typical culture storage committee cell bank) were inoculated in 96-well culture plate with a suitable cell concentration of 2000 cells per hole, 140 μL of medium per well, then incubated in a carbon dioxide incubator at 37° C. overnight. 10 μL of different concentrations of the test compounds were added and reacted for 96 hours, and then the solvent control group (negative control) was set. The proliferation inhibitory activities against tumor cells of the test compounds were tested by CCK8 (CellCounting Kit-8, Item No: CK04, purchased from Tongren Chemical) method after 96 hours. The full-wavelength microplate reader SpectraMax190 was used for reading, the measurement wavelength was 450 nm.
as §4
IC50 value was calculated by four parameter regression using microplate reader with random software.

CDK1/CyclinB, sequence (P06493 whole entry): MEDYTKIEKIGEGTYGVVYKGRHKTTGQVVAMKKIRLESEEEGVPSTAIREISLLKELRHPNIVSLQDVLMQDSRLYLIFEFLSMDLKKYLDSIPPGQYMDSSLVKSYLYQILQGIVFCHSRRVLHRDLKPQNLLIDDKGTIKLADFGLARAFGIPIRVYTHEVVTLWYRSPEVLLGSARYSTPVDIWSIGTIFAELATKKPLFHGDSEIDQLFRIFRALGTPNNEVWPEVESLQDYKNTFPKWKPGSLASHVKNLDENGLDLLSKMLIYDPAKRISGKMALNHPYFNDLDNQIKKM
CDK1/CyclinB, sequence (P14635 whole entry partner): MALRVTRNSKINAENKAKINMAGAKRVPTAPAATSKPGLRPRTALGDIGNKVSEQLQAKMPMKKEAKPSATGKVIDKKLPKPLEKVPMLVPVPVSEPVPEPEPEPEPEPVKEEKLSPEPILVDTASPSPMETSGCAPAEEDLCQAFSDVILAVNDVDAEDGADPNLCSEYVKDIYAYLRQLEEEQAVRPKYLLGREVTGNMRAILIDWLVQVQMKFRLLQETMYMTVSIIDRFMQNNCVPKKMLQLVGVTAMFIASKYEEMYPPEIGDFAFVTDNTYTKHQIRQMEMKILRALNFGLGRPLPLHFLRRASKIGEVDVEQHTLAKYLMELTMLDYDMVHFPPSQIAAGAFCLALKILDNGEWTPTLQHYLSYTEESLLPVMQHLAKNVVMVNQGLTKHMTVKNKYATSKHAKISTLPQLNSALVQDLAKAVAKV

IC50 [1] [nM] | IC50 [2] [nM] | IC50 [3] [nM] | Structure (SMILES)
> 500 | < 100 | 500 to 2000 | CN(C)C(=O)c1cc2cnc(Nc3ccc(N4CCNC(C)(C)C4)cn3)nc2n1N1CCCCC1 [Example 20, 2-((5-(3,3-dimethylpiperazin-1-yl)pyridin-2-yl)amino)-N,N-dimethyl-7-(piperidin-1-yl)-7H-pyrrolo[2,3-d]pyrimidine-6-carboxamide]
> 500 | < 100 | > 2000 | CN(C)C(=O)c1cc2cnc(Nc3ccc(N4CCNCC4)cn3)nc2n1N1CCCCCC1 [Example 15, 7-(hexamethyleneimin-1-yl)N,N-dimethyl-2-((5-(piperazin-1-yl)pyridin-2-yl)amino)-7H-pyrrolo[2,3-d]pyrimidine-6-carboxamide]
> 500 | < 100 | > 2000 | CN(C)C(=O)c1cc2cnc(Nc3ccc(N4CCOCC4)cn3)nc2n1N1CCCCC1 [Example 25, N,N-dimethyl-2-((5-morpholinopyridin-2-yl)amino)-7-(piperidin-1-yl)-7H-pyrrolo[2,3-d]pyrimidine-6-carboxamide]
 | < 100 | > 2000 | CN(C)C(=O)c1cc2cnc(Nc3ccc(N4CCN(C(=O)OC(C)(C)C)CC4)cn3)nc2n1N1CCCC1 [Example 19, Tert-butyl 4-(6-((6-(dimethylcarbamoyl)-7-(pyrrolidin-1-yl)-7H-pyrrolo[2,3-d]pyrimidin-2-yl)amino)pyridin-3-yl)piperazine-1-carboxylate]
 | 100 to 500 |  | CN1CCN(c2ccc(Nc3ncc4cc(C(=O)N(C)C)n(N5CCOCC5)c4n3)nc2)CC1 [Example 22, N,N-dimethyl-2-((5-(4-methylpiperazin-1-yl)pyridin-2-yl)amino)-7-morpholino-7H-pyrrolo[2,3-d]pyrimidine-6-carboxamide]
 | < 100 | 500 to 2000 | CN(C)C(=O)c1cc2cnc(Nc3ccc(N4CCNCC4)cn3)nc2n1N1CCCCC1 [Example 13]
> 500 | < 100 | 500 to 2000 | CN1CCN(c2ccc(Nc3ncc4cc(C(=O)N(C)C)n(N5CCCCC5)c4n3)nc2)CC1 [Example 14, N,N-dimethyl-2-((5-(4-methylpiperazin-1-yl)pyridin-2-yl)amino)-7-(piperidin-1-yl)-7H-pyrrolo[2,3-d]pyrimidine-6-carboxamide]
 | < 100 | > 2000 | CN(C)C(=O)c1cc2cnc(Nc3ccc(N4CCN(C(=O)OC(C)(C)C)CC4)cn3)nc2n1N1CCCCC1 [Example 12]
> 500 | < 100 | 500 to 2000 | CCN1CCN(c2ccc(Nc3ncc4cc(C(=O)N(C)C)n(N5CCCCC5)c4n3)nc2)CC1 [Example 26, N,N-dimethyl-2-((5-(4-ethylpiperazin-1-yl)pyridin-2-yl)amino)-7-(piperidin-1-yl)-7H-pyrrolo[2,3-d]pyrimidine-6-carboxamide]
> 500 | < 100 | > 2000 | CN(C)C(=O)c1cc2cnc(Nc3ccc(N4CCNCC4)cn3)nc2n1N1CCCC1 [Example 24, N,N-dimethyl-2-((5-(piperazin-1-yl)pyridin-2-yl)amino)-7-(pyrrolidin-1-yl)-7H-pyrrolo[2,3-d]pyrimidine-6-carboxamide]

Second part, the molecule before the results:

Structure (SMILES) | IC50 [1] [nM] | IC50 [2] [nM] | IC50 [3] [nM]
C[C@@H]1CN(c2ccc(Nc3ncc4cc(C(=O)N(C)C)n(N5CCCCC5)c4n3)nc2)C[C@H](C)N1 [Example 27, 2-((5-((3S,5R)-3,5-dimethylpiperazin-1-yl)pyridin-2-yl)amino)-N,N-dimethyl-7-(piperidin-1-yl)-7H-pyrrolo[2,3-d]pyrimidine-6-carboxamide] | > 500 | < 100 | 500 to 2000
O=C(c1cc2cnc(Nc3ccc(N4CCNCC4)cn3)nc2n1N1CCCCC1)N1CCC1 [Example 17, Azetidin-1-yl-(2-((5-(piperazin-1-yl)pyridin-2-yl)amino)-7-(piperidin-1-yl)-7H-pyrrolo[2,3-d]pyrimidin-6-yl)methanone] | > 500 | < 100 | > 2000
CN1CCN(c2ccc(Nc3ncc4cc(C(=O)N5CCCC5)n(N5CCCCC5)c4n3)nc2)CC1 [Example 21, (2-((5-(4-methylpiperazin-1-yl)pyridin-2-yl)amino)-7-(piperidin-1-yl)-7H-pyrrolo[2,3-d]pyrimidin-6-yl)-pyrrolidin-1-ylmethanone] | > 500 | < 100 | > 2000
CN(C)C(=O)c1cc2cnc(Nc3ccc(N4CCNCC4)cn3)nc2n1N1CCOCC1 [Example 28, N,N-dimethyl-2-((5-(piperazin-1-yl)pyridin-2-yl)amino)-7-morpholino-7H-pyrrolo[2,3-d]pyrimidine-6-carboxamide] |  | 100 to 500 | 
CNC(=O)c1cc2cnc(Nc3ccc(N4CCNCC4)cn3)nc2n1N1CCCCC1 [Example 18, N-methyl-2-((5-(piperazin-1-yl)pyridin-2-yl)amino)-7-(piperidin-1-yl)-7H-pyrrolo[2,3-d] pyrimidine-6-carboxamide] | > 500 | < 100 | 500 to 2000
O=C(c1cc2cnc(Nc3ccc(N4CCNCC4)cn3)nc2n1N1CCCCC1)N1CCCC1 [Example 23, (2-((5-(piperazin-1-yl)pyridin-2-yl)amino)-7-(piperidin-1-yl)-7H-pyrrolo[2,3-d]pyrimidin-6-yl)-pyrrolidin-1-ylmethanone] | > 500 | < 100 | > 2000
CCN(CC)C(=O)c1cc2cnc(Nc3ccc(N4CCNCC4)cn3)nc2n1N1CCCCC1 [Example 29, N,N-diethyl-2-((5-(piperazin-1-yl)pyridin-2-yl)amino)-7-(piperidin-1-yl)-7H-pyrrolo[2,3-d]pyrimidine-6-carboxamide] | > 500 | < 100 | > 2000
CN1CCN(c2ccc(Nc3ncc4cc(C(=O)N5CCC5)n(N5CCCCC5)c4n3)nc2)CC1 [Example 16, Azetidin-1-yl-(2-((5-(4-methylpiperazin-1-yl)pyridin-2-yl)amino)-7-(piperidin-1-yl)-7H-pyrrolo[2,3-d]pyrimidin-6-yl)methanone] | > 500 | < 100 | 500 to 2000
